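A five-concentration, 48-hour dose response in 96-well plates underlies each endpoint, interpolated linearly between surrounding concentrations. Definition used: TGI = concentration required for complete inhibition of growth.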
Legend:
Experiment in all cases: DTP human tumour cell line panel, 48 h
[1] = system: 786-0 renal
[2] = system: A498 renal
[3] = system: A549 NSCLC
[4] = system: ACHN renal
[5] = system: BT-549 breast
[6] = system: CAKI-1 renal
[7] = system: CCRF-CEM leukemia
[8] = system: COLO 205 colon
[9] = system: DU-145 prostate
[10] = system: EKVX NSCLC
[11] = system: HCC-2998 colon
[12] = system: HCT-116 colon
[13] = system: HL-60(TB) leukemia
[14] = system: HOP-62 NSCLC
[15] = system: HOP-92 NSCLC
[16] = system: HS 578T breast
[17] = system: HT29 colon
[18] = system: IGROV1 ovarian
[19] = system: K-562 leukemia
[20] = system: KM12 colon
[21] = system: LOX IMVI melanoma
[22] = system: MCF7 breast
[23] = system: MDA-MB-435
[24] = system: MDA-N
[25] = system: MOLT-4 leukemia
[26] = system: NCI-H226 lung
[27] = system: NCI-H460 lung
[28] = system: NCI-H522 lung
[29] = system: NCI/ADR-RES ovarian
[30] = system: OVCAR-3 ovarian
[31] = system: OVCAR-4 ovarian
[32] = system: OVCAR-5 ovarian
[33] = system: OVCAR-8 ovarian
[34] = system: PC-3 prostate
[35] = system: RPMI-8226 leukemia
[36] = system: RXF 393 renal
[37] = system: SF-295 CNS
[38] = system: SF-539 CNS
[39] = system: SK-MEL-2 melanoma
[40] = system: SK-MEL-28 melanoma
[41] = system: SK-MEL-5 melanoma
[42] = system: SK-OV-3 ovarian
[43] = system: SNB-19 CNS
[44] = system: SNB-75 CNS
[45] = system: SR leukemia
[46] = system: SW-620 colon
[47] = system: T-47D breast
[48] = system: TK-10 renal
[49] = system: U251 CNS
[50] = system: UACC-257 melanoma
[51] = system: UACC-62 melanoma
[52] = system: UO-31 renal

## CC(C)(CNC(=O)/C(Cl)=C(/Cl)C(=O)O)CNC(=O)/C(Cl)=C(/Cl)C(=O)O
[1]
  TGI: > 100 µM
[2]
  TGI: > 100 µM
[3]
  TGI: > 100 µM
[4]
  TGI: 60.3 µM
[5]
  TGI: > 100 µM
[6]
  TGI: > 100 µM
[7]
  TGI: > 100 µM
[8]
  TGI: 35.6 µM
[9]
  TGI: > 100 µM
[10]
  TGI: > 100 µM
[11]
  TGI: > 100 µM
[12]
  TGI: > 100 µM
[13]
  TGI: > 100 µM
[14]
  TGI: > 100 µM
[15]
  TGI: > 100 µM
[16]
  TGI: > 100 µM
[17]
  TGI: > 100 µM
[18]
  TGI: > 100 µM
[19]
  TGI: > 100 µM
[20]
  TGI: > 100 µM
[21]
  TGI: > 100 µM
[22]
  TGI: > 100 µM
[23]
  TGI: > 100 µM
[24]
  TGI: > 100 µM
[25]
  TGI: > 100 µM
[26]
  TGI: > 100 µM
[27]
  TGI: > 100 µM
[28]
  TGI: > 100 µM
[29]
  TGI: > 100 µM
[30]
  TGI: > 100 µM
[31]
  TGI: > 100 µM
[32]
  TGI: > 100 µM
[33]
  TGI: > 100 µM
[34]
  TGI: > 100 µM
[35]
  TGI: 76.3 µM
[36]
  TGI: > 100 µM
[37]
  TGI: > 100 µM
[38]
  TGI: > 100 µM
[39]
  TGI: > 100 µM
[40]
  TGI: > 100 µM
[41]
  TGI: > 100 µM
[42]
  TGI: > 100 µM
[43]
  TGI: > 100 µM
[44]
  TGI: > 100 µM
[45]
  TGI: > 100 µM
[46]
  TGI: > 100 µM
[47]
  TGI: > 100 µM
[48]
  TGI: > 100 µM
[49]
  TGI: > 100 µM
[50]
  TGI: > 100 µM
[51]
  TGI: > 100 µM
[52]
  TGI: > 100 µM
